# Assay results from the supplement of paper PMC10307832.
# Key:
# Test in all cases: relative viability (nuclei count vs DMSO), 5 days (fraction); higher = more cells survive
# Cediranib + Palbociclib = compound: COc1cc2c(Oc3ccc4[nH]c(C)cc4c3F)ncnc2cc1OCCCN1CCCC1 [Cediranib] + CC(=O)c1c(C)c2cnc(Nc3ccc(N4CCNCC4)cn3)nc2n(C2CCCC2)c1=O [Palbociclib] (partner 0.5 µM)
# Procedure, shortened: (§1)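 One day after seeding in 1536-well plates, lung cancer cell lines were dosed by pin tool. Dosing was either single-drug or a fixed anchor-drug dose plus five library-drug doses (not always all listed) in √10 steps. After 5 days, nuclei were stained in one fix-and-stain step and counted on 4× images, and relative viability is the nuclei count of treated wells over that of vehicle wells, given as the median of duplicate plates.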
# Cediranib + Trametinib = compound: COc1cc2c(Oc3ccc4[nH]c(C)cc4c3F)ncnc2cc1OCCCN1CCCC1 [Cediranib] + CC(=O)Nc1cccc(-n2c(=O)n(C3CC3)c(=O)c3c(Nc4ccc(I)cc4F)n(C)c(=O)c(C)c32)c1 [Trametinib] (partner 0.02 µM)
# Procedure, shortened: as §1
# Cediranib + Phenformin = compound: COc1cc2c(Oc3ccc4[nH]c(C)cc4c3F)ncnc2cc1OCCCN1CCCC1 [Cediranib] + N=C(N)NC(=N)NCCc1ccccc1 [Phenformin] (partner 250 µM)
# Procedure, shortened: as §1
# Cediranib + Pemetrexed = compound: COc1cc2c(Oc3ccc4[nH]c(C)cc4c3F)ncnc2cc1OCCCN1CCCC1 [Cediranib] + Nc1nc2[nH]cc(CCc3ccc(C(=O)N[C@@H](CCC(=O)O)C(=O)O)cc3)c2c(=O)[nH]1 [Pemetrexed] (partner 0.2 µM)
# Procedure, shortened: as §1
Cell Line,relative viability (Cediranib + Palbociclib; first compound 0.04 µM),relative viability (Cediranib + Palbociclib; first compound 0.1265 µM),relative viability (Cediranib + Palbociclib; first compound 0.4 µM),relative viability (Cediranib + Palbociclib; first compound 1.265 µM),relative viability (Cediranib + Palbociclib; first compound 4 µM),relative viability (Cediranib + Trametinib; first compound 0.04 µM),relative viability (Cediranib + Trametinib; first compound 0.1265 µM),relative viability (Cediranib + Trametinib; first compound 0.4 µM),relative viability (Cediranib + Trametinib; first compound 1.265 µM),relative viability (Cediranib + Trametinib; first compound 4 µM),relative viability (Cediranib + Phenformin; first compound 0.04 µM),relative viability (Cediranib + Phenformin; first compound 0.1265 µM),relative viability (Cediranib + Phenformin; first compound 0.4 µM),relative viability (Cediranib + Phenformin; first compound 1.265 µM),relative viability (Cediranib + Phenformin; first compound 4 µM),relative viability (Cediranib + Pemetrexed; first compound 0.04 µM),relative viability (Cediranib + Pemetrexed; first compound 0.1265 µM),relative viability (Cediranib + Pemetrexed; first compound 0.4 µM),relative viability (Cediranib + Pemetrexed; first compound 1.265 µM),relative viability (Cediranib + Pemetrexed; first compound 4 µM)
NCI-H650,0.381,0.321,0.334,0.34,0.308,0.96,0.85,1.06,1.09,1.03,0.497,0.388,0.475,0.476,0.437,0.862,0.569,0.955,0.978,1.08
NCI-H1975,0.62,0.608,0.491,0.578,0.547,0.377,0.388,0.338,0.373,0.337,0.421,0.415,0.394,0.459,0.426,0.269,0.314,0.277,0.301,0.284
NCI-H2085,0.5,0.48,0.469,0.473,0.466,0.571,0.523,0.475,0.49,0.526,0.655,0.844,0.632,0.753,0.814,0.892,1.06,0.864,0.812,0.9
NCI-H3122,0.209,–,0.186,0.199,0.175,0.226,–,0.218,0.242,0.282,0.374,–,0.364,0.36,0.363,0.227,0.238,0.191,0.203,0.216
NCI-H1651,0.534,0.551,0.499,0.523,0.527,0.826,0.874,0.846,0.855,0.821,0.321,0.327,0.277,0.321,0.311,0.601,0.619,0.592,0.497,0.53
NCI-H522,1.04,0.899,0.891,0.998,1.07,0.785,0.675,0.755,0.864,0.756,0.623,0.608,0.575,0.64,0.687,1.16,0.713,1.14,0.863,0.995
NCI-H441,0.202,0.258,0.22,0.205,0.275,0.631,0.504,0.408,0.483,0.399,0.658,–,0.802,0.763,0.991,0.265,0.291,0.258,0.271,0.257
NCI-H2126,0.349,0.358,0.359,0.349,0.314,0.575,0.551,0.551,0.578,0.531,0.515,0.526,0.53,0.516,0.538,0.701,0.595,0.627,0.725,0.748
RERF-LC-KJ,1.15,1.02,1,1.15,1.13,0.875,0.902,0.839,0.762,0.985,0.42,0.442,0.386,0.476,0.426,0.488,0.346,0.444,0.514,0.479
NCI-H1666,0.681,0.61,0.636,0.644,0.658,0.87,0.655,0.838,0.844,0.877,0.564,0.488,0.524,0.548,0.579,0.889,0.962,0.898,0.912,0.841
PC-14,0.601,0.627,0.487,0.439,0.328,0.862,0.664,0.66,0.582,0.519,0.593,0.756,0.508,0.517,0.567,0.0843,0.143,0.13,0.131,0.146
NCI-H1915,0.549,0.491,0.506,0.512,0.553,0.318,0.308,0.3,0.307,0.272,0.371,0.331,0.372,0.374,0.364,0.655,0.74,0.448,0.516,0.446
NCI-H661,0.452,0.441,0.405,0.391,0.442,0.609,0.751,0.567,0.522,0.61,0.294,0.296,0.281,0.267,0.31,0.974,0.927,0.935,0.891,1.03
SK-MES-1,0.304,0.311,0.328,0.283,0.324,0.606,0.553,0.52,0.527,0.562,0.663,0.748,0.618,0.626,0.639,1.02,1.01,0.901,0.964,1.03
NCI-H1944,0.331,0.386,0.315,0.346,0.313,0.402,0.377,0.409,0.4,0.474,0.211,0.223,0.167,0.205,0.235,0.709,0.473,0.562,0.593,0.713
HCC-78,0.55,–,0.507,0.53,0.592,0.742,1.02,0.721,0.915,0.919,0.712,0.709,0.649,0.607,0.718,0.912,0.879,0.901,0.899,0.901
PC-3 [JPC-3],0.571,–,0.515,0.559,0.563,0.69,–,0.681,0.708,0.662,0.462,0.498,0.489,0.472,0.468,1.03,–,1.08,1.17,0.96
